Laboratory results as given in paper PMC10538245, “Fragment merging approach for design, synthesis, and biological assessment of urea/acetyl hydrazide clubbed thienopyrimidine derivatives as GSK-3β inhibitors” (BMC Chemistry, 2023).

Assays:
GSK-3β = GSK-3β (Homo sapiens, UniProt P49841); assay: GSK-3β kinase inhibition, Z'-LYTE FRET assay (Thermo Fisher SelectScreen); assay type: biochemical
A498 = assay: NCI 60-cell line one dose antiproliferative assay; assay type: cell-based; conditions: Homo sapiens; A498, Renal Cancer, 10 µM one dose; read-out: Percent inhibition (cell growth inhibition %)
Excerpt: (§1) The National Cancer Institute "NCI", NIH, Bethesda, Maryland, USA (www.dtp.nci.nih.gov) chose six of the final compounds for the Developmental Therapeutic Program (DTP), codes (5a, 5b, 5c, 5d, 6a, 6b). The NCI screening service will favor compounds with drug-like modes of action based on computer-aided design. Selection The criterion for screening is the possibility of the submitted compounds to provide diversity to the NCI small molecule chemical collection. This screen employs 60 different Leukemia, melanoma, and additional tumor cell lines of the human from brain, kidney, lung, ovary, colon, breast, and prostate cancers. All compounds were picked based on their NCI codes. NSC: D-820696/1, NSC: D-820697/1, NSC: D-820698/1, NSC: D-820699/1, NSC: D-820700/1, NSC: D-820701/1. The initial 10 µM one dose percent inhibition assay was performed on the entire NCI 60 cell panel to examine the different chemotypes of this work. The results are presented as a percentage of cell growth on each of the 60 NCI cell line panels for each of the investigated substances in Table 2.
(§2) The NCI cancer screening procedure includes a comparison of all substances to the sixty NCI cell line panel representing leukemia, NSCLC, cell lines from breast cancer, prostate cancer, melanoma, CNS cancer, renal cancer, ovarian cancer, and colon cancer at a single point of 10 uM. The results of the single-dose screen can be presented using a mean graph.

A549/ ATCC = assay: NCI 60-cell line one dose antiproliferative assay; assay type: cell-based; conditions: Homo sapiens, Non-Small Cell Lung Cancer, 10 µM one dose, read-out: Percent inhibition (cell growth inhibition %)
Excerpt: as §1, §2

CAKI-1 = assay: NCI 60-cell line one dose antiproliferative assay; assay type: cell-based; conditions: Homo sapiens; CAKI-1, Renal Cancer, 10 µM one dose; read-out: Percent inhibition (cell growth inhibition %)
Excerpt: as §1, §2

HS 578 T = assay: NCI 60-cell line one dose antiproliferative assay; assay type: cell-based; conditions: Homo sapiens, Breast Cancer, 10 µM one dose, read-out: Percent inhibition (cell growth inhibition %)
Excerpt: as §1, §2

IGROV1 = assay: NCI 60-cell line one dose antiproliferative assay; assay type: cell-based; conditions: Homo sapiens, IGROV-1; IGROV1, Ovarian Cancer, 10 µM one dose; read-out: Percent inhibition (cell growth inhibition %)
Excerpt: as §1, §2

LOX IMVI = assay: NCI 60-cell line one dose antiproliferative assay; assay type: cell-based; conditions: Homo sapiens, Melanoma, 10 µM one dose, read-out: Percent inhibition (cell growth inhibition %)
Excerpt: as §1, §2

MCF7 = assay: NCI 60-cell line one dose antiproliferative assay; assay type: cell-based; conditions: Homo sapiens; MCF7, Breast Cancer, 10 µM one dose; read-out: Percent inhibition (cell growth inhibition %)
Excerpt: as §1, §2

MDA-MB-468 = assay: NCI 60-cell line one dose antiproliferative assay; assay type: cell-based; conditions: Homo sapiens; MDA-MB-468, Breast Cancer, 10 µM one dose; read-out: Percent inhibition (cell growth inhibition %)
Excerpt: as §1, §2

MOLT-4 = assay: NCI 60-cell line one dose antiproliferative assay; assay type: cell-based; conditions: Homo sapiens; MOLT-4, Leukemia, 10 µM one dose; read-out: Percent inhibition (cell growth inhibition %)
Excerpt: as §1, §2

NCI-H226 = assay: NCI 60-cell line one dose antiproliferative assay; assay type: cell-based; conditions: Homo sapiens; NCI-H226, Non-Small Cell Lung Cancer, 10 µM one dose; read-out: Percent inhibition (cell growth inhibition %)
Excerpt: as §1, §2

NCI-H322M = assay: NCI 60-cell line one dose antiproliferative assay; assay type: cell-based; conditions: Homo sapiens, Non-Small Cell Lung Cancer, 10 µM one dose, read-out: Percent inhibition (cell growth inhibition %)
Excerpt: as §1, §2

NCI-H460 = assay: NCI 60-cell line one dose antiproliferative assay; assay type: cell-based; conditions: Homo sapiens; NCI-H460, Non-Small Cell Lung Cancer, 10 µM one dose; read-out: Percent inhibition (cell growth inhibition %)
Excerpt: as §1, §2

NCI-H522 = assay: NCI 60-cell line one dose antiproliferative assay; assay type: cell-based; conditions: Homo sapiens; NCI-H522, Non-Small Cell Lung Cancer, 10 µM one dose; read-out: Percent inhibition (cell growth inhibition %)
Excerpt: as §1, §2

OVCAR-5 = assay: NCI 60-cell line one dose antiproliferative assay; assay type: cell-based; conditions: Homo sapiens; OVCAR-5, Ovarian Cancer, 10 µM one dose; read-out: Percent inhibition (cell growth inhibition %)
Excerpt: as §1, §2

PC-3 = assay: NCI 60-cell line one dose antiproliferative assay; assay type: cell-based; conditions: Homo sapiens; PC-3, Prostate Cancer, 10 µM one dose; read-out: Percent inhibition (cell growth inhibition %)
Excerpt: as §1, §2

RXF 393 = assay: NCI 60-cell line one dose antiproliferative assay; assay type: cell-based; conditions: Homo sapiens; RXF 393, Renal Cancer, 10 µM one dose; read-out: Percent inhibition (cell growth inhibition %)
Excerpt: as §1, §2

SF-268 = assay: NCI 60-cell line one dose antiproliferative assay; assay type: cell-based; conditions: Homo sapiens; SF-268, CNS Cancer, 10 µM one dose; read-out: Percent inhibition (cell growth inhibition %)
Excerpt: as §1, §2

SK-MEL-5 = assay: NCI 60-cell line one dose antiproliferative assay; assay type: cell-based; conditions: Homo sapiens; SK-MEL-5, Melanoma, 10 µM one dose; read-out: Percent inhibition (cell growth inhibition %)
Excerpt: as §1, §2

SNB-19 = assay: NCI 60-cell line one dose antiproliferative assay; assay type: cell-based; conditions: Homo sapiens; SNB-19, CNS Cancer, 10 µM one dose; read-out: Percent inhibition (cell growth inhibition %)
Excerpt: as §1, §2

SNB-75 = assay: NCI 60-cell line one dose antiproliferative assay; assay type: cell-based; conditions: Homo sapiens; SNB-75, CNS Cancer, 10 µM one dose; read-out: Percent inhibition (cell growth inhibition %)
Excerpt: as §1, §2

SW-620 = assay: NCI 60-cell line one dose antiproliferative assay; assay type: cell-based; conditions: Homo sapiens; SW-620, Colon Cancer, 10 µM one dose; read-out: Percent inhibition (cell growth inhibition %)
Excerpt: as §1, §2

T-47D = assay: NCI 60-cell line one dose antiproliferative assay; assay type: cell-based; conditions: Homo sapiens, T47D, Breast Cancer, 10 µM one dose, read-out: Percent inhibition (cell growth inhibition %)
Excerpt: as §1, §2

UACC-62 = assay: NCI 60-cell line one dose antiproliferative assay; assay type: cell-based; conditions: Homo sapiens; UACC-62, Melanoma, 10 µM one dose; read-out: Percent inhibition (cell growth inhibition %)
Excerpt: as §1, §2

UO-31 = assay: NCI 60-cell line one dose antiproliferative assay; assay type: cell-based; conditions: Homo sapiens; UO-31, Renal Cancer, 10 µM one dose; read-out: Percent inhibition (cell growth inhibition %)
Excerpt: as §1, §2

Chain of GSK-3β (P49841 whole entry): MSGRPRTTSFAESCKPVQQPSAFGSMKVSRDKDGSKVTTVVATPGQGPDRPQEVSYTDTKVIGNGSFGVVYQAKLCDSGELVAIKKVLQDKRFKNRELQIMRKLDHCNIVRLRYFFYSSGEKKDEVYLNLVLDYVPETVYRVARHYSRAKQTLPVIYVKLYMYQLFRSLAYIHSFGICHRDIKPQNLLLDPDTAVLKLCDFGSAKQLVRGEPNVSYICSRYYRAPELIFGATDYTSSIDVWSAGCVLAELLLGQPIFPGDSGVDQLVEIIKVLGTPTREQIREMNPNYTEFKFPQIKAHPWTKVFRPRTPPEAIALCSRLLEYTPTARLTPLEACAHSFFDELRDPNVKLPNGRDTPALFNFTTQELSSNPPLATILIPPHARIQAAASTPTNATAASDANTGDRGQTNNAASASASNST

For `CN(C)c1ccc(C=NNC(=O)COc2ncnc3sc4c(c23)CCCC4)cc1` [5d, N'-(4-(Dimethylamino)benzylidene)-2-((5,6,7,8-tetrahydrobenzo [4,5]thieno[2,3-d]pyrimidin-4-yl)oxy) acetohydrazide], the inhibition at 10 µM (GSK-3β; 10 μM) was 5%, the inhibition at 100 µM (GSK-3β; 100 μM single dose) was 50% and the inhibition at 10 µM (A498) was 48.4%. The inhibition at 10 µM (A549/ ATCC) was 1.15%, the inhibition at 10 µM (CAKI-1) was 5.26% and the inhibition at 10 µM (HS 578 T) was 5.71%. The inhibition at 10 µM (IGROV1) was 14.4%, the inhibition at 10 µM (LOX IMVI) was 2.93% and the inhibition at 10 µM (MCF7) was 7.82%. The inhibition at 10 µM (MDA-MB-468) was 15.8%, the inhibition at 10 µM (MOLT-4) was 0.81% and the inhibition at 10 µM (NCI-H226) was 8.81%. For the same compound, the inhibition at 10 µM (NCI-H322M) was 3.69%, the inhibition at 10 µM (NCI-H460) was 1.04% and the inhibition at 10 µM (NCI-H522) was 4.74%. The inhibition at 10 µM (OVCAR-5) was 8.97%, the inhibition at 10 µM (PC-3) was 3.93% and the inhibition at 10 µM (RXF 393) was 7.97%. For the same compound, the inhibition at 10 µM (SF-268) was 1.44%, the inhibition at 10 µM (SK-MEL-5) was 0.27% and the inhibition at 10 µM (SNB-19) was 3.31%. For the same compound, the inhibition at 10 µM (SNB-75) was 18.8%, the inhibition at 10 µM (SW-620) was 2.39% and the inhibition at 10 µM (T-47D) was 0.95%. For the same compound, the inhibition at 10 µM (UACC-62) was 5.34%, the inhibition at 10 µM (UO-31) was 24% and the melting point was 285 °C.
